Source: PMC9403976, “Elucidating the path to Plasmodium prolyl-tRNA synthetase inhibitors that overcome halofuginone resistance” (Nature Communications, 2022)
“And” between values parts separate entries of the source, which are not always exact repeats. Equal entries are not always repeated. Where two headings read alike, the source gives them in different places.

Legend:
[1] = system: P. falciparum Dd2-2D4 NCP26 selections S1-3; assay: ABS growth assay on bulk populations and clones from NCP26 resistance selections S1-3; assay type: cell-based, Plasmodium falciparum; details: for EC50: Plasmodium falciparum
HsProRS = HsProRS (Homo sapiens, UniProt P07814); assay: TR-FRET ligand displacement assay with tracer MAT379 (CoraFluor-1-Halo and anti-His6 antibody formats); assay type: binding; parameters: made in house; host or cells: E. coli SoluBL-21; details: for TR-FRET dose-response, normalized signal (SI Fig 11): individual replicates; for TR-FRET dose-response, normalized signal (SI Fig 11) / normalized TR-FRET ligand displacement signal, dose-response replicates (SI Fig 6): listed as NCP26 (3)
Sequence of HsProRS (P07814 996-1512): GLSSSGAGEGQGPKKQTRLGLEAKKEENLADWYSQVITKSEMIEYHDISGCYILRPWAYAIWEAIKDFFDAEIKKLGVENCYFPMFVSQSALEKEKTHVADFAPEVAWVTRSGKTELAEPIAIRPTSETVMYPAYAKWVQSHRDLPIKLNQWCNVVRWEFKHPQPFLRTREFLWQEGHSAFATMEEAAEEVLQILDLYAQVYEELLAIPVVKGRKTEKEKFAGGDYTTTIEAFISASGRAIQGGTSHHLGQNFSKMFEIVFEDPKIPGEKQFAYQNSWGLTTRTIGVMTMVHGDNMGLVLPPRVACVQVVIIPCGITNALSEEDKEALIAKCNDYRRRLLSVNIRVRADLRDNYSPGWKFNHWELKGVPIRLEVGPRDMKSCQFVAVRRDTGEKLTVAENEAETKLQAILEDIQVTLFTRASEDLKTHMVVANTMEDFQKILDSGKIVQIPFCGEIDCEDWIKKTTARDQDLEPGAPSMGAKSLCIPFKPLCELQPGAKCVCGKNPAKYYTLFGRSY

O=C(NC1Cc2ccccc2C1)c1nccnc1NC(=O)N1CCCCC1 [NCP26]
EC50 ([1]; DD2, cell line S1 - Clone A8, read-out: EC50 [nM] mean): 68.1 nM | EC50 ([1]; DD2, cell line S1 - bulk population, read-out: EC50 [nM] mean): 102 nM | EC50 ([1]; DD2, cell line S2 - Clone A3, read-out: EC50 [nM] mean): 1240 nM | EC50 ([1]; DD2, cell line S2 - Clone B9, read-out: EC50 [nM] mean): 2930 nM | EC50 ([1]; DD2, cell line S2 - Clone C5, read-out: EC50 [nM] mean): 1580 nM | EC50 ([1]; DD2, cell line S2 - bulk population, read-out: EC50 [nM] mean): 1340 nM | EC50 ([1]; DD2, cell line S3 - Clone B3, read-out: EC50 [nM] mean): 2810 nM | EC50 ([1]; DD2, cell line S3 - Clone B7, read-out: EC50 [nM] mean): 2450 nM | EC50 ([1]; DD2, cell line S3 - bulk population, read-out: EC50 [nM] mean): 2000 nM | EC50 ([1]; DD2, read-out: EC50 [nM] mean, cell line S3 - Clone B2): 5110 nM | parasite growth, dose-response point ([1]; S1 - Clone A8, Log[NCP26] (M) -6.505): 1 | parasite growth, dose-response point ([1]; S1 - Clone A8, Log[NCP26] (M) -6.806): 9 | parasite growth, dose-response point ([1]; S1 - Clone A8, Log[NCP26] (M) -7.107): 33 and 29 | parasite growth, dose-response point ([1]; S1 - Clone A8, Log[NCP26] (M) -7.408): 93 and 97 and 101 | parasite growth, dose-response point ([1]; S2 - Clone A3, Log[NCP26] (M) -6.505): 93 and 92 and 86 | parasite growth, dose-response point ([1]; S2 - Clone A3, Log[NCP26] (M) -6.806): 96 and 98 and 93 | parasite growth, dose-response point ([1]; S2 - Clone A3, Log[NCP26] (M) -7.107): 100 and 98 | parasite growth, dose-response point ([1]; S2 - Clone A3, Log[NCP26] (M) -7.408): 99 and 101 and 100 | parasite growth, dose-response point ([1]; S2 - Clone B9, Log[NCP26] (M) -6.505): 98 and 112 and 97 | parasite growth, dose-response point ([1]; S2 - Clone B9, Log[NCP26] (M) -6.806): 107 and 93 and 96 | parasite growth, dose-response point ([1]; S2 - Clone B9, Log[NCP26] (M) -7.107): 96 and 110 and 113 | parasite growth, dose-response point ([1]; S2 - Clone B9, Log[NCP26] (M) -7.408): 107 and 94 and 102 | parasite growth, dose-response point ([1]; S2 - Clone B9, Log[NCP26] (M) -7.709): 99 and 93 and 94 | parasite growth, dose-response point ([1]; S2 - Clone C5, Log[NCP26] (M) -6.505): 95 and 102 | parasite growth, dose-response point ([1]; S2 - Clone C5, Log[NCP26] (M) -6.806): 98 and 100 and 101 | parasite growth, dose-response point ([1]; S2 - Clone C5, Log[NCP26] (M) -7.107): 101 and 97 | parasite growth, dose-response point ([1]; S2 - Clone C5, Log[NCP26] (M) -7.408): 96 and 101 and 100 | parasite growth, dose-response point ([1]; S2 - Clone C5, Log[NCP26] (M) -7.709): 102 and 105 | parasite growth, dose-response point ([1]; S3 - Clone A6, Log[NCP26] (M) -6.505): 108 and 103 and 90 | parasite growth, dose-response point ([1]; S3 - Clone A6, Log[NCP26] (M) -6.806): 101 and 97 | parasite growth, dose-response point ([1]; S3 - Clone A6, Log[NCP26] (M) -7.107): 95 and 100 and 96 | parasite growth, dose-response point ([1]; S3 - Clone A6, Log[NCP26] (M) -7.408): 112 and 100 and 105 | parasite growth, dose-response point ([1]; S3 - Clone A8, Log[NCP26] (M) -6.505): 94 and 102 and 97 | parasite growth, dose-response point ([1]; S3 - Clone A8, Log[NCP26] (M) -6.806): 101 and 99 and 104 | parasite growth, dose-response point ([1]; S3 - Clone A8, Log[NCP26] (M) -7.107): 100 and 103 and 99 | parasite growth, dose-response point ([1]; S3 - Clone A8, Log[NCP26] (M) -7.408): 104 (2×) and 98 | parasite growth, dose-response point ([1]; S3 - Clone B2, Log[NCP26] (M) -6.505): 76 and 92 and 86 | parasite growth, dose-response point ([1]; S3 - Clone B2, Log[NCP26] (M) -6.806): 88 and 90 and 99 | parasite growth, dose-response point ([1]; S3 - Clone B2, Log[NCP26] (M) -7.107): 113 and 109 and 107 | parasite growth, dose-response point ([1]; S3 - Clone B2, Log[NCP26] (M) -7.408): 108 and 109 | parasite growth, dose-response point ([1]; S3 - Clone B3, Log[NCP26] (M) -6.505): 92 and 95 | parasite growth, dose-response point ([1]; S3 - Clone B3, Log[NCP26] (M) -6.806): 92 and 96 and 98 | parasite growth, dose-response point ([1]; S3 - Clone B3, Log[NCP26] (M) -7.107): 99 and 94 | parasite growth, dose-response point ([1]; S3 - Clone B3, Log[NCP26] (M) -7.408): 105 and 101 and 104 | parasite growth, dose-response point ([1]; S3 - Clone B7, Log[NCP26] (M) -6.505): 101 and 95 and 100 | parasite growth, dose-response point ([1]; S3 - Clone B7, Log[NCP26] (M) -6.806): 99 and 96 and 101 | parasite growth, dose-response point ([1]; S3 - Clone B7, Log[NCP26] (M) -7.107): 98 and 94 and 99 | parasite growth, dose-response point ([1]; S3 - Clone B7, Log[NCP26] (M) -7.408): 105 and 98 | fold increased affinity in the presence of proline (HsProRS; 100 μM proline vs no substrates): > 750 fold | Kd (HsProRS; HsProRS (KD [nM]) + ATP, 500 μM ATP, 250 nM MAT379): 678 nM | Kd (HsProRS; HsProRS (KD [nM]) −, absence of substrates, 250 nM MAT379): 271 nM | Kd (HsProRS; HsProRS - best Kd, SI Fig 16a, values on -log scale): 0.351 nM | TR-FRET dose-response, normalized signal (SI Fig 11) (HsProRS; Log[inhibitor] (M) -5.000): 3.90E-02 and 5.46E-02 and 7.26E-02 | normalized TR-FRET ligand displacement signal, dose-response replicates (SI Fig 6) (HsProRS; Log[inhibitor] (M) -5.000): -7.74E-03 and 7.74E-03 | TR-FRET dose-response, normalized signal (SI Fig 11) (HsProRS; Log[inhibitor] (M) -5.301): 8.66E-02 (2×) and 6.05E-02 | normalized TR-FRET ligand displacement signal, dose-response replicates (SI Fig 6) (HsProRS; Log[inhibitor] (M) -5.301): 1.56E-02 and 1.09E-02 | TR-FRET dose-response, normalized signal (SI Fig 11) (HsProRS; Log[inhibitor] (M) -5.601): 1.54E-01 and 1.44E-01 and 1.56E-01 | normalized TR-FRET ligand displacement signal, dose-response replicates (SI Fig 6) (HsProRS; Log[inhibitor] (M) -5.601): 1.19E-01 and 1.01E-01 | normalized TR-FRET ligand displacement signal, dose-response replicates (SI Fig 6) (HsProRS; Log[inhibitor] (M) -5.902): 2.03E-01 and 2.10E-01 | TR-FRET dose-response, normalized signal (SI Fig 11) (HsProRS; Log[inhibitor] (M) -5.904): 2.33E-01 and 2.21E-01 and 2.09E-01 | normalized TR-FRET ligand displacement signal, dose-response replicates (SI Fig 6) (HsProRS; Log[inhibitor] (M) -6.203): 4.13E-01 and 3.59E-01 | TR-FRET dose-response, normalized signal (SI Fig 11) (HsProRS; Log[inhibitor] (M) -6.208): 3.61E-01 and 2.97E-01 and 3.35E-01 | TR-FRET dose-response, normalized signal (SI Fig 11) (HsProRS; Log[inhibitor] (M) -6.509): 4.65E-01 and 4.29E-01 and 4.89E-01 | normalized TR-FRET ligand displacement signal, dose-response replicates (SI Fig 6) (HsProRS; Log[inhibitor] (M) -6.513): 6.17E-01 and 6.51E-01 | TR-FRET dose-response, normalized signal (SI Fig 11) (HsProRS; Log[inhibitor] (M) -6.796): 6.56E-01 and 6.91E-01 and 6.47E-01 | normalized TR-FRET ligand displacement signal, dose-response replicates (SI Fig 6) (HsProRS; Log[inhibitor] (M) -6.796): 7.87E-01 and 8.56E-01 | TR-FRET dose-response, normalized signal (SI Fig 11) (HsProRS; Log[inhibitor] (M) -7.108): 8.29E-01 and 7.76E-01 and 7.86E-01 | normalized TR-FRET ligand displacement signal, dose-response replicates (SI Fig 6) (HsProRS; Log[inhibitor] (M) -7.108): 8.95E-01 and 9.07E-01 | normalized TR-FRET ligand displacement signal, dose-response replicates (SI Fig 6) (HsProRS; Log[inhibitor] (M) -7.405): 9.57E-01 and 8.55E-01 | TR-FRET dose-response, normalized signal (SI Fig 11) (HsProRS; Log[inhibitor] (M) -7.409): 9.33E-01 and 8.84E-01 and 8.96E-01 | TR-FRET dose-response, normalized signal (SI Fig 11) (HsProRS; Log[inhibitor] (M) -7.710): 1.01E+00 and 8.77E-01 and 8.78E-01 | normalized TR-FRET ligand displacement signal, dose-response replicates (SI Fig 6) (HsProRS; Log[inhibitor] (M) -7.714): 1.05E+00 and 9.22E-01 | TR-FRET dose-response, normalized signal (SI Fig 11) (HsProRS; Log[inhibitor] (M) -8.000): 9.74E-01 and 9.83E-01 and 9.34E-01 | normalized TR-FRET ligand displacement signal, dose-response replicates (SI Fig 6) (HsProRS; Log[inhibitor] (M) -8.000): 1.02E+00 and 1.00E+00 | normalized TR-FRET signal (Fig 2j) (HsProRS; Log[inhibitor] (M) -8.013): 3.80E-01 and 4.41E-01 and 3.90E-01 | TR-FRET dose-response, normalized signal (SI Fig 11) (HsProRS; Log[inhibitor] (M) -8.301): 1.04E+00 and 9.70E-01 and 9.69E-01 | normalized TR-FRET signal (Fig 2j) (HsProRS; Log[inhibitor] (M) -8.314): 5.85E-01 and 7.34E-01 and 6.18E-01 | normalized TR-FRET ligand displacement signal, dose-response replicates (SI Fig 6) (HsProRS; Log[inhibitor] (M) -8.331): 1.04E+00 and 1.00E+00 | normalized TR-FRET ligand displacement signal, dose-response replicates (SI Fig 6) (HsProRS; Log[inhibitor] (M) -8.574): 1.00E+00 and 9.98E-01 | TR-FRET dose-response, normalized signal (SI Fig 11) (HsProRS; Log[inhibitor] (M) -8.602): 1.02E+00 and 9.93E-01 and 9.50E-01 | normalized TR-FRET signal (Fig 2j) (HsProRS; Log[inhibitor] (M) -8.615): 7.72E-01 and 8.28E-01 and 8.16E-01 | normalized TR-FRET signal (Fig 2j) (HsProRS; Log[inhibitor] (M) -8.916): 9.01E-01 and 9.63E-01 and 9.82E-01 | TR-FRET dose-response, normalized signal (SI Fig 11) (HsProRS; Log[inhibitor] (M) -9.000): 9.79E-01 and 9.82E-01 and 1.02E+00 | normalized TR-FRET signal (Fig 2j) (HsProRS; Log[inhibitor] (M) -9.217): 9.20E-01 and 1.06E+00 | TR-FRET dose-response, normalized signal (SI Fig 11) (HsProRS; Log[inhibitor] (M) -9.301): 1.04E+00 and 1.00E+00 and 9.65E-01
